According to US20260167622A1, “PAN-KRAS DEGRADING AGENT, AND PREPARATION METHOD THEREFOR AND USE THEREOF” (LEADINGTAC PHARMACEUTICAL (SHAOXING) CO., LTD., priority 2022, published 2026):

Tests used:
Human KRAS WT = target: T1, Human KRAS WT (Homo sapiens, UniProt P01116); test: KRAS WT:GTP binding assay (HTRF kit); settings: 25° C., 1 h
T1 construct: purchased PerkinElmer
Description: Test Example 3: KRAS WT Binding Assay
In this method, the inhibitory effects of the compounds on the binding of KRAS WT to GTP were assayed by a homogeneous time-resolved fluorescence (HTRF) technique using a KRAS WT:GTP binding assay kit (PerkinElmer).
(§1) The experimental procedures were as follows (refer to the kit instructions for detailed test methods): the compounds of the present disclosure were each firstly dissolved in DMSO at a stock concentration of 20 mM. The stock solutions of the compounds were diluted in an equal gradient with DMSO, and then were subjected to second dilution with a buffer in the kit, so that the final concentrations of the test compounds in the reaction system were in a range of 0.02-5000 nM, and the final concentration of DMSO was 0.5%. […] After the incubation was completed, the fluorescence intensity of each well was measured at the excitation wavelength of 337 nm and the emission wavelengths of 620 nm and 665 nm with an EnVision microplate reader (PerkinElmer) in the HTRF mode, and Ratio values were calculated using the formula: Ratio=(665 nm/620 nm)×104. The inhibition rates of the compounds at each concentration were calculated by comparing the fluorescence intensity ratio with that of the control group. […]

Human KRAS G12D = target: T2, Human KRAS G12D (Homo sapiens, UniProt P01116, G12D); test: KRAS-G12D/GTP binding assay (HTRF kit); settings: 25° C., 1 h
T2 construct: purchased PerkinElmer
T2 sequence (P01116 1-188 isoform P01116-2 G12D): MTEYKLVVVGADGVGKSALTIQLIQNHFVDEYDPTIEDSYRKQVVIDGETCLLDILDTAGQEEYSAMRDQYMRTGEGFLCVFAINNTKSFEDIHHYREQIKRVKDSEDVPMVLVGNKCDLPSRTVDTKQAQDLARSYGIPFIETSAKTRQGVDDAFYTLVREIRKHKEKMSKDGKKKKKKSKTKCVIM
Description: Test Example 1: KRAS G12D Binding Assay
In this method, the inhibitory effects of the compounds on the binding of KLRAS G12D to GTP were assayed by a homogeneous time-resolved fluorescence (HTRF) technique using a KLRAS-G12D/GTP binding assay kit (PerkinElmer).
as §1, with “a” for “a stock”, “mM, and then” for “mM. The stock solutions of the compounds were”, “gradient” for “gradient with DMSO, and then were subjected to second dilution”, “nm)×[…].” for “nm)×104.”

T1 sequence (P01116 1-188 isoform P01116-2): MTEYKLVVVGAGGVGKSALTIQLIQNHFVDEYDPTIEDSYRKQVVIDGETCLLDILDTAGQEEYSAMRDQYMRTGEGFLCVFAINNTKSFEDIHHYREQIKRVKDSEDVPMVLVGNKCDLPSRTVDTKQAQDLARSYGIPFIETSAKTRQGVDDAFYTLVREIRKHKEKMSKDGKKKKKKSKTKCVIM

| SMILES | IC50 (Human KRAS WT) | IC50 (Human KRAS G12D) |
| --- | --- | --- |
| C#Cc1c(F)ccc2cc(O)cc(-c3ncc4c(N5CCC[C@@](C)(O)C5)nc(OCC5(CN6CCN(CC7CCC8(CC7)CCN(C(=O)c7ccc(Cl)c(N9CCC(=O)NC9=O)c7)CC8)CC6)CC5)nc4c3F)c12 [Example 1, (R)-1-(2-chloro-5-(9-((4-((1-(((7-(8-ethynyl-7-fluoro-3-hydroxynaphthalen-1-yl)-8-fluoro-4-(3-hydroxy-3-methylpiperidin-1-yl)pyrido[4,3-d]pyrimidin-2-yl)oxy)methyl)cyclopropyl)methyl)piperazin-1-yl)methyl)-3-azaspiro[5.5]undecane-3-carbonyl)phenyl)dihydropyrimidine-2,4(1H,3H)-dione] | 1000 to 10000 nM | ≤ 500 nM |
| CCc1cccc2cc(O)cc(-c3ncc4c(N5CCC[C@@](C)(O)C5)nc(OCC5(CN6CCN(CC7CCC8(CC7)CCN(C(=O)c7ccc(Cl)c(N9CCC(=O)NC9=O)c7)CC8)CC6)CC5)nc4c3F)c12 [Example 3, (R)-1-(2-chloro-5-(9-((4-((1-(((7-(8-ethyl-3-hydroxynaphthalen-1-yl)-8-fluoro-4-(3-hydroxy-3-methylpiperidin-1-yl)pyrido[4,3-d]pyrimidin-2-yl)oxy)methyl)cyclopropyl)methyl)piperazin-1-yl)methyl)-3-azaspiro[5.5]undecane-3-carbonyl)phenyl)dihydropyrimidine-2,4(1H,3H)-dione] | 500 to 1000 nM | ≤ 500 nM |
